Reference: patent US10508085B2, “Compounds and methods for IDO and TDO modulation, and indications therefor” (Plexxikon Inc., priority 2016, dated 2019)
Like-named read-outs stand apart in the source and are kept apart here.

How the values were obtained:
[1] = target: T1, Human Tryptophan 2,3-dioxygenase (TDO) (Homo sapiens, UniProt P48775); assay: Human TDO enzymatic assay (kynurenine level); type: biochemical
T1 construct: His tag (N); made in house; host or cells: E. coli
Outline: (§1)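 Kynurenine formed is measured after TCA quench and 50 °C hydrolysis, with % inhibition against full-reaction and no-enzyme controls (5% DMSO). IDO: 6 nM enzyme, 10 μM L-Trp, 5 μM methylene blue, 20 min; TDO: 1 nM, 350 μM L-Trp, 0.4 μM methylene blue, 70 min; both pH 6.5, room temp, E. coli-expressed His-tagged.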

[2] = target: T2, human IDO (IDO1-expressing HEK293 cells) (Homo sapiens, UniProt P14902); assay: Cell based kynurenine assay, IDO1-expressing HEK293 cell clones
T2 construct: expressed in transfected cells
T2 sequence (P14902 whole entry): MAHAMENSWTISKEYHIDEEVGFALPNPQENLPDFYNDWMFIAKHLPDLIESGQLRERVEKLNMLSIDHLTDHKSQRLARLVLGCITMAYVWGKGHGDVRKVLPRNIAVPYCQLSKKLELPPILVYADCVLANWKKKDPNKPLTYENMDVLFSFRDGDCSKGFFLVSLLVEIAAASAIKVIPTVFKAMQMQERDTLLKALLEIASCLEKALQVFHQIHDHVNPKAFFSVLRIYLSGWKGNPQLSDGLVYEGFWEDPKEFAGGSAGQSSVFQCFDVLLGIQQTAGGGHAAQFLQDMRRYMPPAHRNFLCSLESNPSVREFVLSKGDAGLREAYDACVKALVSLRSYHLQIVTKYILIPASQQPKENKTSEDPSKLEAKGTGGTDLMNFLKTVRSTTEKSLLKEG
Outline: (§2)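 Kynurenine in culture supernatant read after 24 h compound exposure of HEK293 cells stably expressing human IDO1 or TDO. IC50 from nonlinear regression of % inhibition relative to 0.2% DMSO cell (high) and media-only (low) controls.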

[3] = target: T3, Human Indoleamine 2,3-dioxygenase (IDO) (Homo sapiens, UniProt P14902); assay: Human IDO enzymatic assay (kynurenine level); type: biochemical
T3 construct: His tag (N); made in house; host or cells: E. coli
T3 sequence (P14902 whole entry): as above
Outline: as §1

[4] = target: T4, human TDO (TDO-expressing HEK293 cells) (Homo sapiens, UniProt P48775); assay: Cell based kynurenine assay, TDO-expressing HEK293 cell clones
T4 construct: expressed in transfected cells
T4 sequence (P48775 whole entry): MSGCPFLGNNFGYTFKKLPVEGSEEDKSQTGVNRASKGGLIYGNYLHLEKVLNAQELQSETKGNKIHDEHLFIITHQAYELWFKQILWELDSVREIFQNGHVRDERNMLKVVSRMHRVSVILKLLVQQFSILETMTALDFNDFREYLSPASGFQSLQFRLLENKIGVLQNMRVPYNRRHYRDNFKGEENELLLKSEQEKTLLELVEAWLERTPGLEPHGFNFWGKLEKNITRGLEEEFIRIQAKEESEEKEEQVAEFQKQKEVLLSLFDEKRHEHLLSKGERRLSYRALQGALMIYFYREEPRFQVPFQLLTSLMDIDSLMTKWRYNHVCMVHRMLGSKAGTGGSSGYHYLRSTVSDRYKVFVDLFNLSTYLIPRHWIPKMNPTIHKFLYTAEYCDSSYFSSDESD
Outline: as §2

[5] = 1 nM TDO, 350 μM L-Trp, geometric mean, read-out: TDO GMean: IC50 (μM) (Biochemical Assay)
[6] = IDO1-expressing HEK293 cells, 24 hours incubation, geometric mean, read-out: HEK293 IDO1 Kynurenine GMean IC50 (μM) (Cellular Assay)
[7] = 6 nM IDO, 10 μM L-Trp, geometric mean, read-out: IDO1 GMean: IC50 (μM) (Biochemical Assay)
[8] = TDO-expressing HEK293 cells, 24 hours incubation, geometric mean, read-out: HEK293 TDO Kynurenine GMean IC50 (μM) (Cellular Assay)
[9] = IDO1-expressing HEK293 cells, 24 hours, geometric mean, read-out: HEK293 IDO1 Kynurenine GMean IC50 (μM) (Cellular Assay)
[10] = TDO-expressing HEK293 cells, 24 hours, geometric mean, read-out: HEK293 TDO Kynurenine GMean IC50 (μM) (Cellular Assay)
[11] = biochemical assay, comparative examples, 4,6 versus 5,7 indazole, read-out: TDO
[12] = cellular assay, HEK293, 24 hours, comparative examples, read-out: hIDO1
[13] = biochemical assay, comparative examples, 4,6 versus 5,7 indazole, read-out: IDO1
[14] = cellular assay, HEK293, 24 hours, comparative examples, read-out: hTDO

T1 sequence (P48775 whole entry): as above

In the case of `Nc1nc(C(=O)N2CCC(C3(C(O)c4cc(Cl)cc5cn[nH]c45)CC3)CC2)cs1` (centres unmarked) [Compound P-0166, (2-aminothiazol-4-yl)(4-(1-((5-chloro-1H-indazol-7-yl)(hydroxy)methyl)cyclopropyl)piperidin-1-yl)methanone], the IC50 [1, 5] is reported as 0.0001 to 10 µM, the IC50 [2, 6] is reported as 0.0001 to 10 µM and the IC50 [3, 7] is reported as 0.0001 to 10 µM. For the same compound, the IC50 [4, 8] was 0.0001 to 10 µM.
In the case of `CC1(C(O)c2c3c(cc4cn[nH]c24)CC3)CCCCC1` (centres unmarked) [Compound P-0054, (5,6-dihydro-1H-cyclobuta[f]indazol-7-yl)(1-methylcyclohexyl)methanol], the IC50 [1, 5] is reported as 0.0001 to 10 µM, the IC50 [2, 6] is reported as 0.0001 to 10 µM and the IC50 [3, 7] is reported as 0.0001 to 10 µM. The IC50 [4, 8] was greater than 10 µM.
Work on `CC(C)(C1CCOCC1)C(O)c1cc(Cl)cc2cn[nH]c12` (centres unmarked) [Compound P-0191, 1-(5-chloro-1H-indazol-7-yl)-2-methyl-2-(tetrahydro-2H-pyran-4-yl)propan-1-ol] yielded an IC50 [1, 5] of 0.0001 to 10 µM, an IC50 [2, 6] of 0.0001 to 10 µM and an IC50 [3, 7] of 0.0001 to 10 µM. For the same compound, the IC50 [4, 8] was 0.0001 to 10 µM.
With `COc1ccc(CC(=O)N2CCC(C(F)(F)C(O)c3cc(Cl)cc4cn[nH]c34)CC2)cn1` (centres unmarked) [Compound P-0521, 1-(4-(2-(5-chloro-1H-indazol-7-yl)-1,1-difluoro-2-hydroxyethyl)piperidin-1-yl)-2-(6-methoxypyridin-3-yl)ethan-1-one] the IC50 [1, 5] was 0.0001 to 10 µM, the IC50 [2, 9] was 0.0001 to 10 µM and the IC50 [3, 7] was 0.0001 to 10 µM. For the same compound, the IC50 [4, 10] was 0.0001 to 10 µM.
`OCC1CCC(C(O)c2cc(Cl)cc3cn[nH]c23)CC1` (centres unmarked) [Compound P-0197, (5-chloro-1H-indazol-7-yl)(4-(hydroxymethyl)cyclohexyl)methanol] was tested, and the IC50 [1, 5] was 0.0001 to 10 µM, the IC50 [2, 6] was 0.0001 to 10 µM and the IC50 [3, 7] was 0.0001 to 10 µM. The IC50 [4, 8] was 0.0001 to 10 µM.
With `CC(C)(CN1CCCC1)C(O)c1cc(Cl)cc2cn[nH]c12` (stereo not drawn) [Compound P-0202, 1-(5-chloro-1H-indazol-7-yl)-2,2-dimethyl-3-(pyrrolidin-1-yl)propan-l-ol] the IC50 [1, 5] was 0.0001 to 10 µM, the IC50 [2, 6] was greater than 10 µM and the IC50 [3, 7] was 10 to 100 µM. It also gave an IC50 [4, 8] greater than 10 µM.
With `CC(C)(C)C(O)c1cc(Cl)cc2cn[nH]c12` (centres unmarked) [Compound P-0212, 1-(5-chloro-1H-indazol-7-yl)-2,2-dimethylpropan-1-ol] the IC50 [1, 5] was 0.0001 to 10 µM, the IC50 [2, 6] was 0.0001 to 10 µM and the IC50 [3, 7] was 0.0001 to 10 µM. It also gave an IC50 [4, 8] of 0.0001 to 10 µM.
`OC(c1cc(F)cc2cn[nH]c12)C12CC3CC(CC(C3)C1)C2` (centres unmarked) [Compound P-0043, adamantan-1-yl(5-fluoro-1H-indazol-7-yl)methanol] showed an IC50 [1, 5] of 0.0001 to 10 µM, an IC50 [2, 6] of 0.0001 to 10 µM and an IC50 [3, 7] of 0.0001 to 10 µM. For the same compound, the IC50 [4, 8] was greater than 10 µM.
With `CC(C)(C1CCOCC1)C(O)c1cc(Cl)cc2cn[nH]c12` (centres unmarked) [drawing 816] the IC50 [1, 11] was 1.18 µM, the IC50 [2, 12] was 0.08 µM and the IC50 [3, 13] was 0.11 µM. For the same compound, the IC50 [4, 14] was 2.63 µM.
`COC(=O)N1CCC(C2(C(O)c3c(F)c(Cl)cc4cn[nH]c34)CC2)CC1` (centres unmarked) [Compound P-0160, methyl 4-(1-((5-chloro-6-fluoro-1H-indazol-7-yl)(hydroxy)methyl)cyclopropyl)piperidine-1-carboxylate] gave an IC50 [1, 5] of 0.0001 to 10 µM, an IC50 [2, 6] of 0.0001 to 10 µM and an IC50 [3, 7] of 0.0001 to 10 µM. For the same compound, the IC50 [4, 8] was 0.0001 to 10 µM.
`CC(C)(C)C(O)c1c(F)c(Cl)c(F)c2cn[nH]c12` (centres unmarked) [Compound P-0248, 1-(5-chloro-4,6-difluoro-1H-indazol-7-yl)-2,2-dimethylpropan-1-ol] was tested, and the IC50 [1, 5] was 0.0001 to 10 µM, the IC50 [2, 6] was 0.0001 to 10 µM and the IC50 [3, 7] was 0.0001 to 10 µM. For the same compound, the IC50 [4, 8] was greater than 10 µM.
`CC(C)(C1CCN(C(=O)CN2CCOCC2)CC1)C(O)c1cc(Cl)cc2cn[nH]c12` (centres unmarked) [Compound P-0441, 1-(4-(1-(5-chloro-1H-indazol-7-yl)-1-hydroxy-2-methylpropan-2-yl)piperidin-1-yl)-2-morpholinoethan-1-one] gave an IC50 [1, 5] of 0.0001 to 10 µM, an IC50 [2, 9] of 0.0001 to 10 µM and an IC50 [3, 7] of 0.0001 to 10 µM. The IC50 [4, 10] was 0.0001 to 10 µM.
For `COC12CCC(C(O)c3cc(Cl)cc4cn[nH]c34)(CC1)CC2` (centres unmarked) [drawing 812], the IC50 [1, 11] was 1.18 µM, the IC50 [2, 12] was 0.08 µM and the IC50 [3, 13] was 0.11 µM. The IC50 [4, 14] was 2.63 µM.
Compound `Cc1cccc(NC(=O)N2CCC(C(C)(C)C(O)c3cc(Cl)cc4cn[nH]c34)CC2)c1` (centres unmarked) [Compound P-0181, 4-(1-(5-chloro-1H-indazol-7-yl)-1-hydroxy-2-methylpropan-2-yl)-N-(m-tolyl)piperidine-1-carboxamide] has an IC50 [1, 5] of 0.0001 to 10 µM, an IC50 [2, 6] of 0.0001 to 10 µM and an IC50 [3, 7] of 0.0001 to 10 µM. For the same compound, the IC50 [4, 8] was 0.0001 to 10 µM.
